One series relates to HeLa cells. Briefly: Cell viability (WST-1), untransfected HeLa cells. The series is classed as cell-based. The settings on record: up to 12.5 μM, 48 h. The procedure:
Cell Viability. Cells were treated with DMSO (vehicle) or compound 2 for 48 h at 37° C. After the removal of the DMSO or compound-containing growth medium, the cells were washed with 1×DPBS and incubated in growth medium containing 10% (v/v) WST-1 cell proliferation reagent (Roche) or CellTiter Fluor (Promega; per the manufacturer's recommend protocol) for 40 min. The absorbance of the solution was measured at 450 and 650 nm with a SpectraMax M5 plate reader (Molecular Devices) for cells treated with WST-1. The background signal at 650 nm was subtracted from the WST-1 signal at 450 nm for analysis. For cells treated with CellTiter Fluor, the fluorescence was measured with 390 nm excitation and 505 nm emission wavelengths. Cells treated with a compound were compared to vehicle treated cells to determine the effect of the compound on cell viability.
On the technique in general: Tetrazolium assays rely on reduction of a dye to a coloured formazan, in cell work by metabolically active cells.

The test system of a further series is DDPAC SRE RNA. Briefly: In vitro competitive Chem-CLIP (C-Chem-CLIP), DDPAC SRE RNA. To be noted: 3 at 1.5 μM, read-out: IC50, competition of the binding of 3. The method, then:
In Vitro Chemical Cross-linking and Isolation by Pull Down (Chem-CLIP) and Competitive Chem-CLIP (C-Chem-CLIP). Growth medium [Dulbecco's modified eagle medium (DMEM; corning, 10-013-CM) with 1× Glutagro (corning)] and 10% (v/v) fetal bovine serum (FBS; Sigma, 12003C) was inactivated by heating at 95° C. for 15 min and slowly cooling to room temperature. Approximately 10,000 counts of 32P 5′-end labeled tau WT, DDPAC, WT+I17T, or DDPAC+I17T RNA were folded in 10 μL growth medium by heating at 65° C. for 5 min and slowly cooling to room temperature. Chem-CLIP probe 3 or negative control probe 4 was then added into the folded RNA in a total volume of 20 μL, and the mixtures were incubated at 37° C. for 1 h. For C-Chem-CLIP, dilutions of competing compound 2 were incubated with RNA for 30 min before adding 3. […]
The Chem-CLIP probe 3 or control probe 4 was then clicked to disulfide biotin azide (2 μL of 10 mM solution prepared in DMSO solution per sample; Click Chemistry Tools, catalog no. 1168-10). […] The radioactive signal from bound RNAs (on the beads) and unbound RNAs (in the wash buffer) was measured by using a Beckman Coulter LS6500 Liquid Scintillation Counter as Rbound and Runbound. Enrichment was calculated as the percentage of radiolabeled RNA captured by beads calculated as Rbound/(Rbound+Runbound).

Series [1] concerns WT I17T MAPT exon 10 mini-gene luciferase reporter. Briefly: Luciferase reporter assay, WT I17T mutant mini-gene in HeLa cells. The settings on record: Homo sapiens, 48 h, 5 μM (highest dose), read-out: reduction of luciferase activity. The series is classed as cell-based. The procedure:
Luciferase-reporter Assay to Study Exon 10 Alternative Splicing. The exon 10 mini-genes, both WT and DDPAC and mutant thereof, fused to firefly luciferase, have been previously described.^18 HeLa cells were seeded in 60 mm diameter dishes and incubated for 12-16 h to 70% confluency. They were then transfected with WT, WT+I17T, DDPAC, or DDPAC+I17T luciferase reporter minigenes using JetPrime (Polyplus Transfection) per the manufacturer's recommended protocol and incubated for 4 h. After transfection, the cells were collected by trypsinization and re-seeded in 96-well plates at 0.2×10^5 cells per well, followed by treatment of compounds after 4 h. Compound stocks prepared in DMSO were diluted in growth medium and added to cells with final DMSO concentration at 0.1% (v/v). After a 48 h treatment period, the cells were washed with 1× DPBS. Each well was added with a mixture of 10 μL WST-1 reagent and 90 μL of growth medium. After incubation at 37° C. for 45 min, absorbance was measured at 450 and 690 nm. A690 as background was subtracted from A450 to obtain A450′. […] The plate was incubated at room temperature for 20 min and the luminescence was measured with a […] plate reader (1000 ms integration time). The resulted luminescence was normalized to A450′.

Series [2] has as its system WT I17T MAPT mini-gene (exon 10 splicing). Briefly: 4R/3R MAPT mRNA by RT-qPCR, HeLa cells transfected with WT I17T mini-gene. The series is classed as cell-based. The procedure:
RNA Isolation and Real-Time Quantitative PCR (RT-qPCR). HeLa cells were treated as described in the Luciferase Reporter assay to Study Exon 10 Alternative Splicing. LAN5 cells were seeded in 12-well plates at 0.2×10^6 cells per well, treated with compound or ASO, and incubated for 48 h. Compound stocks prepared in DMSO and ASO stocks prepared in water were diluted in growth medium and added to cells. Total RNA was extracted from cells and analyzed via RT-qPCR to determine levels of 3R and 4R tau mRNA. In brief, the cells were washed with 1×DPBS and then lysed in the well using 300 μL of Lysis Buffer provided in a Quick-RNA MiniPrep kit (Zymo Research), which was used to extract total RNA per the manufacturer's protocol including the on-column DNase I digestion. The concentration of total RNA was measured by NanoDrop 2000 (Thermo Fisher Scientific). Only samples with OD260/OD280>1.8 were carried forward for analysis. Reverse transcription (RT) was carried out on 200 ng of total RNA using a qScript cDNA synthesis kit (QuantaBio) in a total volume of 10 μL according to the manufacturer's protocol. An Applied Biosystems QS5 384-well PCR system was used to complete qPCR reactions with Power SYBR Green Master Mix (Life Technologies), 600 nM each primer (Table S3), 20 ng of cDNA (1 μL of the RT reaction), in a total volume of 33 μL. Technical triplicates (10 μL each) were aliquoted into 384-well qPCR plates (Applied biosystems, 4483285). Subsequent qPCR analysis was performed using an Applied Biosystems QS5 384-well PCR system (software v.1.3.0). 4R/3R ratio were analyzed using ΔΔCt method using Equation 2: […]
where ΔCt 4R or ΔCt 3R is the difference between the Ct values for the 4R or 3R MAPT mRNA and a housekeeping gene (18S rRNA) in total RNA from cells.
A general note: Quantitative PCR measures a nucleic acid by following its amplification.

By IC50 is commonly meant the point on the concentration scale where inhibition reaches its midpoint. Turning to `COc1cc(N)ncc1CCCN(C)CCCn1cnc2c3ccccc3n(C)c2c1=O` [Compound 2, 3-(3-((3-(6-amino-4-methoxypyridin-3-yl)propyl)(methyl)amino)propyl)-5-methyl-3,5-dihydro-4H-pyrimido[5,4-b]indol-4-one], the “effect on viability of HeLa cells” value in the series with HeLa cells is “No effect on the viability”. The IC50 in the series with DDPAC SRE RNA is ~2 µM. Further, the inhibition at 5 µM in series [1] was ~15%. Further, the “PSI10 (PSI of MAPT exon 10) vs vehicle” value in series [2] was “not WT I17T or DDPAC I17T mutant”. In series [2] (1 at 10 μM or 2 at 1.5 μM), the “change in 4R/3R ratio (not statistically significant)” value is < 16%.
